Values quoted from earlier work, collected in patent publication US9840652B2, “Water-based drilling fluid with cyclodextrin shale stabilizer” (Halliburton Energy Services, Inc., priority 2012, dated 2017).

Experiments:
[1] = test system: Cyprinus carpio (common carp)

Compound: OC[C@H]1O[C@@H]2O[C@H]3[C@H](O)[C@@H](O)[C@@H](O[C@H]4[C@H](O)[C@@H](O)[C@@H](O[C@H]5[C@H](O)[C@@H](O)[C@@H](O[C@H]6[C@H](O)[C@@H](O)[C@@H](O[C@H]7[C@H](O)[C@@H](O)[C@@H](O[C@H]8[C@H](O)[C@@H](O)[C@@H](O[C@H]1[C@H](O)[C@H]2O)O[C@@H]8CO)O[C@@H]7CO)O[C@@H]6CO)O[C@@H]5CO)O[C@@H]4CO)O[C@@H]3CO [β-cyclodextrin]
- 96-hr LC50 [1]: 7561 µg/mL
- 72-hr density EC50 (desmodesmus subspicatus): > 100 µg/mL
- 48-hr EC50 (Daphnia magna): > 100 µg/mL
